From the METLIN SMRT retention time set (Domingo-Almenara et al. 2019) come the findings set out here.

A short description of the series: gradient 5% acetonitrile 3 min, to 50% in 2 min, to 85% in 15 min, held 3 min, 100 µL/min. The conditions noted are these: column: Zorbax Extend-C18 2.1 x 50 mm; eluents: water / acetonitrile, 0.1% formic acid. The gist of the method:
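Over 3 months, pure standards in mixtures of ~100 molecules were run by HPLC coupled to a quadrupole time-of-flight mass spectrometer in positive and negative ionization mode. The column was a Zorbax Extend-C18 (2.1 × 50 mm, 1.8 μm) at 100 μL/min, eluted with water and acetonitrile each holding 0.1% formic acid, with 40 μL dead and 900 μL dwell volumes. Retention time was determined from adduct peaks chosen by software and checked manually.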
Consider `O=C(CN1C(=O)C2CCCCN2c2ccc(C(=O)N3CCOCC3)cc21)NCc1ccc(F)cc1` (centres undefined), for which the RP-LC retention time worked out at 734 s.

For `O=C(C1CCCN(S(=O)(=O)c2ccc(-c3ccn[nH]3)o2)C1)N1CCN(c2ccccn2)CC1` (centres undefined), the RP-LC retention time is 607 s.

With `COc1ccc(CC(=O)N2CCCC2c2nc(-c3ccc(OC)c(OC)c3)no2)cc1Cl` (centres undefined), the RP-LC retention time was determined as 911 s.

Turning to `CCc1nccn1Cc1nc(-c2cccc(OC)c2OC)no1`, the RP-LC retention time is 605 s.

Molecule `COc1cccc(-c2noc(C3CCCN3C(=O)Nc3ccccc3OC)n2)c1` (centres undefined) had an RP-LC retention time of 1020 s.

With `Cc1nc(-c2noc(-c3ccccc3)n2)cn1CC(=O)Nc1cccc(Cl)c1`, the RP-LC retention time worked out at 916 s.

Regarding `COCCNc1c(-c2cccc(F)c2)nc2sc(C(N)=O)c(C)n12`, the RP-LC retention time was 696 s.

`O=C(Nc1cnn(-c2ncc(N3CCCC3)cn2)c1)c1ccc(C(F)(F)F)cc1`: the RP-LC retention time is 941 s.

In turn, `Cc1nnc(-c2cccc(Cl)c2)nc1N1CCC(C)CC1` came in with an RP-LC retention time of 986 s.

In turn, `COCCNC(=O)Cn1cccc1-c1nc(-c2ccc(Cl)cc2)cs1` registered an RP-LC retention time of 988 s.

With `COc1ccccc1C(=O)N1CCN(S(=O)(=O)c2cc3c4c(c2)CCC(=O)N4CCC3)CC1`, the RP-LC retention time was 771 s.

As for `Cc1c(Cl)cccc1-n1ccnc(NC(=O)Nc2ccc(F)cc2)c1=O`, the RP-LC retention time is 1000 s.

For the molecule `O=C(NCc1ccccc1F)c1cn2cc(Cl)ccc2n1`, the RP-LC retention time came to 723 s.

In turn, `O=C(c1cc2ccccc2[nH]1)N1CCC(Cn2c(C(F)(F)F)nc3ccccc32)CC1` came in with an RP-LC retention time of 881 s.

In turn, `Cc1nn2c(N3CCN(c4ccccn4)CC3)cc(C(C)(C)C)nc2c1-c1ccc(F)cc1` had an RP-LC retention time of 1090 s.

`O=C(NCCc1csc(C2CCCN(C(=O)C3CCCC3)C2)n1)C1CCC1` (centres undefined) displayed an RP-LC retention time of 718 s.

For the molecule `Cc1ccccc1OCC(=O)N1CCC2(CC1)NC(=O)N(Cc1ccccc1Cl)C2=O`, the RP-LC retention time turned out to be 909 s.

In turn, `C[C@H](Cc1ccccc1)Nc1ncnc2c1ncn2[C@@H]1O[C@H](CO)[C@H](O)C1O` (some centres undefined) had an RP-LC retention time of 696 s.

The molecule `O=C(Cn1ccc2c(SCc3ccc(F)cc3)nccc21)N1CCN(c2ccccc2)CC1` registered an RP-LC retention time of 782 s.

`COc1ccc(CNC(=O)N2C[C@@H]3C[C@H]2C[C@@H]3NS(=O)(=O)c2ccccc2)cc1` displayed an RP-LC retention time of 764 s.

Consider `Cc1nn2c(CNS(=O)(=O)c3ccccc3Cl)c(-c3ccccc3)nc2s1`, for which the RP-LC retention time is 853 s.

As for `CC(=O)N1CCc2cc(N3CC(C(=O)NCc4ccc(C)c(C)c4)CC3=O)ccc21` (centres undefined), the RP-LC retention time came to 750 s.

The molecule `CCOc1ccccc1NC(=O)Cn1nc2c(N3CCSCC3)nccn2c1=O` displayed an RP-LC retention time of 853 s.

In turn, `CC1CCN(c2cc(-n3cnc(C(=O)N4CCSCC4)c3)ncn2)CC1` returned an RP-LC retention time of 719 s.

Regarding `Cc1ccc(CCNC(=O)C2CCCN(c3ncnc4c3nc3n4CCCCC3)C2)cc1` (centres undefined), the RP-LC retention time was found to be 897 s.

In turn, `OC1(c2ccccn2)CCOC2(CCN(Cc3cccc(Cl)c3F)CC2)C1` (centres undefined) yielded an RP-LC retention time of 576 s.

`Cn1cnc(S(=O)(=O)N2CCC(C(=O)NC3CCCCCC3)CC2)c1` came in with an RP-LC retention time of 680 s.

The molecule `CN(CCc1noc(-c2ccc(F)cc2)n1)C(=O)NCc1ccccc1` gave an RP-LC retention time of 839 s.

As for `O=C(c1cccs1)N1CCC(Cn2c(C(F)(F)F)nc3ccccc32)CC1`, the RP-LC retention time came to 819 s.

Take `Cc1ccc(NC(=O)N2CCCC2c2cc(C)on2)c(Cl)c1` (centres undefined): the RP-LC retention time is 897 s.

Turning to `O=C(Cn1nc2c3cc(-c4ccccc4)nn3ccn2c1=O)NC1CCCC1`, the RP-LC retention time was determined as 796 s.

The molecule `CCCN1C(=O)Cc2cc(C(=O)NC3CC3)ccc21` returned an RP-LC retention time of 652 s.

Molecule `COc1cccc(NC(=O)N2CCC3(CC2)NC(=O)c2cc(Cl)ccc2N3C)c1` showed an RP-LC retention time of 780 s.

Take `O=C(N/N=C/c1ccc([N+](=O)[O-])o1)c1ccc(O)cc1`: the RP-LC retention time was determined as 675 s.

`Cc1nn(-c2ccccc2)c(C)c1S(=O)(=O)N1CCC(C(=O)Nc2ccc(F)cc2)CC1` had an RP-LC retention time of 948 s.

Take `CCn1ccc(C(=O)NC2CCCN(c3cc(N(C)C)ncn3)C2)n1` (centres undefined): the RP-LC retention time is 590 s.

In turn, `Cc1cc(C)n2nc(CN(C(=O)c3cccs3)c3ccccc3)nc2n1` showed an RP-LC retention time of 777 s.

On to `Cc1ccc(Nc2cc(C)nc(N3CCN(C(=O)Nc4ccccc4)CC3)n2)cc1`, for which the RP-LC retention time came out at 738 s.

The molecule `COC(=O)c1cc(OCC(=O)NCc2ccc3c(c2)OCO3)c2cc(F)ccc2n1` registered an RP-LC retention time of 785 s.

With `Cc1cc2c(c(=O)n(-c3ccc(F)cc3)c(=O)n2CC(=O)Nc2ccccc2Cl)n1C`, the RP-LC retention time was 858 s.

`Cc1noc2nc(CCC(=O)NCCCc3ccccc3)nc(N3CCOCC3)c12` yielded an RP-LC retention time of 760 s.

Molecule `CC1CCN(C(=O)c2cc3c(s2)CCC(C(=O)N2CCN(C)CC2)C3)CC1` (centres undefined) had an RP-LC retention time of 575 s.

Turning to `Cc1nn(-c2ccc(-c3ccccc3)nn2)c(C)c1S(=O)(=O)N1CCN(C2CCCCC2)CC1`, the RP-LC retention time worked out at 733 s.

Molecule `Cc1cc(C)nc(SCc2cc(=O)c(OC(=O)c3cccc([N+](=O)[O-])c3C)co2)n1` gave an RP-LC retention time of 883 s.

`COc1ccccc1N=NNc1ccccc1OC` displayed an RP-LC retention time of 933 s.

Take `Cc1ccc(S(=O)(=O)N2c3ccccc3NC3=C(C(=O)CCC3)C2c2ccco2)cc1C` (centres undefined): the RP-LC retention time amounted to 860 s.

With `Cc1ccc(Cn2c(CN3CCC(C(=O)NCCC4=CCCCC4)CC3)cc3ccccc32)cc1`, the RP-LC retention time came out at 952 s.

With `CC(=O)N1CCN(c2nc(C)cc(N3CCCCC3)n2)CC1`, the RP-LC retention time is 598 s.

In turn, `O=C1NCN(c2ccccc2)C12CCN(CC1COc3ccccc3O1)CC2` (centres undefined) displayed an RP-LC retention time of 736 s.

Consider `Cc1nn(CC(=O)NC2CCCCCC2)c(=O)c2c(-n3cccc3)n(-c3cccc(F)c3)nc12`, for which the RP-LC retention time stood at 1090 s.

Consider `c1ccc(N2CCN(Cc3cccn3-c3nnc(N4CCCCC4)s3)CC2)nc1`, for which the RP-LC retention time came out at 627 s.

`CNC(=O)c1ccc(-c2nc3cc(NS(=O)(=O)c4ccccc4F)ccc3n2C)cc1`: the RP-LC retention time was determined as 616 s.

`Cc1nc(N2CCN(c3ccccn3)CC2)nc2oc(-c3ccccc3)nc12`: the RP-LC retention time worked out at 755 s.

Molecule `O=C(NCc1ccc(F)cc1Cl)C1CCN(c2cc(Oc3ccccc3)ncn2)CC1` yielded an RP-LC retention time of 863 s.

In turn, `COc1cccc(CN2CCc3nn(C)c(=O)n3CC2)n1` returned an RP-LC retention time of 544 s.

Turning to `O=C(C1CCC1)N1CCCC(OCc2nc(-c3ccncc3)no2)C1` (centres undefined), the RP-LC retention time came out at 713 s.

In the case of `O=C(C1=NNc2ccccc2S1(=O)=O)N1CCCCCC1`, the RP-LC retention time amounted to 735 s.

For `CSc1ccc(CNC(=O)C2CCCN(c3nccn4nc(-c5ccc(C)cc5C)cc34)C2)cc1` (centres undefined), the RP-LC retention time stood at 1030 s.

`CCCN(CCC)C1CCc2cc(O)c(O)cc2C1` (centres undefined) showed an RP-LC retention time of 641 s.

Molecule `O=C(NCc1ccccc1Cl)C1CCN(c2cncnc2N2CCCC2)CC1` had an RP-LC retention time of 677 s.

With `Cc1cc(N2CCN(S(=O)(=O)c3ccc4cccc5c4c3CC5)CC2)nc(NC2CCCCC2)n1`, the RP-LC retention time is 955 s.

As to `Cc1cccc(N(C)C(=O)Cn2cnc3nc4c(cc3c2=O)CCCC4)c1`, the RP-LC retention time was 705 s.

Turning to `COCc1noc([C@@H]2CN(Cc3ccc(Br)o3)C[C@H]2C(N)=O)n1`, the RP-LC retention time amounted to 565 s.

Molecule `Cc1noc2ncn(CC(=O)NCCCc3ccccc3)c(=O)c12` gave an RP-LC retention time of 764 s.

`Cc1ccccc1NC(=O)N1CCc2nc(-c3ccc(Cl)cc3)ncc2C1` returned an RP-LC retention time of 1020 s.

With `COC(=O)c1ccccc1S(=O)(=O)Nc1cccn2c(C3CCC3)nnc12`, the RP-LC retention time is 772 s.

As for `N#CCCN1CCN(c2ccc(NC(=O)C3CC3)c(C(=O)O)c2)CC1`, the RP-LC retention time came out at 579 s.

Take `COc1ccccc1N1CCN(CCN2C(=O)CC3(CCCC3)CC2=O)CC1`: the RP-LC retention time was determined as 733 s.

Turning to `O=C(Cn1c(CN2CCCCCC2)nc2ccccc21)N1CCOCC1`, the RP-LC retention time stood at 596 s.

`CCN1C(=O)COc2ccc(-c3nc(NC(=O)c4cccc(OC)c4)sc3C)cc21` yielded an RP-LC retention time of 1040 s.

As for `Cc1nc2cccnc2n1C1CCN(C(=O)Nc2ccccc2Br)CC1`, the RP-LC retention time worked out at 637 s.

As to `Cc1ccc(C)c(S(=O)(=O)N2CCC(C)(C(=O)NCc3ccccc3C)CC2)c1`, the RP-LC retention time is 1050 s.

`O=C(Nc1nnc(SCc2nnc(-c3ccc4c(c3)OCO4)o2)s1)C1CC1` showed an RP-LC retention time of 750 s.

Consider `C[C@H]1CN(C(=O)Cc2ccccc2F)C[C@@H]1c1nc(-c2ccccc2)no1`, for which the RP-LC retention time is 1020 s.

Molecule `CCOc1ccc(C2Cn3nnc(-c4nc(-c5ccccc5)no4)c3CO2)cc1` (centres undefined) registered an RP-LC retention time of 1200 s.

The molecule `COc1ccc(-c2nc3cnccn3c2Nc2ccc(C)cc2C)cc1OC` displayed an RP-LC retention time of 871 s.

`O=C(Cc1ccccc1)NCC(=O)NC(C(=O)N1CCCc2ccccc21)c1ccccc1` (centres undefined) returned an RP-LC retention time of 875 s.

As to `CC(=O)N1c2ccc(S(=O)(=O)N3CCCCC3)cc2CC1C(=O)NC1CCCCC1` (centres undefined), the RP-LC retention time amounted to 905 s.

As to `Cc1cc(C)cc(NC(=O)Cn2nc(N3CCCCCC3)c3ccccc3c2=O)c1`, the RP-LC retention time amounted to 1110 s.
